According to patent US10785978B2, “Control and repellency of biting flies, house flies, ticks, ants, fleas, biting midges, cockroaches, spiders and stink bugs” (priority 2012, dated 2020):
Where “and” joins values, the source holds several entries; their conditions need not be identical. Identical values can stand only once.

Experiments:
Assay type in all cases: in vivo
Cockroaches = assay: Cockroach toxicity by forced exposure on treated filter paper; conditions: forced exposure 24 hours
Method: Additionally, toxicity was determined by forced exposure testing under the following protocol. Filter paper circles were treated with test compound. Cockroaches were released onto the treated circles and covered with inverted plastic cylinders placed over the paper discs. The cockroaches were left on the substrates for 24 hours and checked for mortality.

[1] = system: brown marmorated stink bugs (BMSB); assay: Brown marmorated stink bug repellency, treated vs. untreated filter paper arena
Method: The two semi-circle filter papers were aligned together to completely cover the bottom of the test arena. Control arenas were also set up in a similar fashion except both were treated with acetone. Five replicates of 5 BMSB were then introduced into both the treated and control arenas. By releasing them in the center of the arena, the BMSB were presented with a choice of treated vs. untreated substrate (or untreated vs. untreated in the control arenas). The repellency of the BMSB was recorded at 24 hours post-treatment.

stable flies = assay: Human forearm test against stable flies, time to first confirmed bite; conditions: average of two trials, maximum 8 hours
Method: Two insect repellents per day were tested by applying one on each arm of a human subject and inserting the arms into a cage containing 50 stable flies. The exposure period was five minutes at every 30 minute interval until the first time a confirmed bite was […] The stable flies were reared at ambient temperature, relative humidity and photoperiod. Groups of 50 flies were aspirated from the cage and released into 16 oz. cups with screened lids, which were used to release flies into the two test cages. […] Adjacent areas above and below the treated area were protected with elastic bandages held in place with Elastikon® surgical tape.
The application rate was between 0.65 ml and 1 ml/250 cm^2 for all repellents. The actual amount of repellent used was based upon the amount that provides thorough coverage of the 250 cm^2 treatment area. A repellent was applied using either a micropipette or a syringe minus the needle. The repellents were then evenly spread on the treatment area with a gloved finger. Each test subject's forearms were allowed to air dry for approximately 30 minutes prior to the first exposure. The study coordinator or technician assisted the test subjects in inserting their arms into the test cages, taking care not to rub them on the cloth sleeve. Both treated arms were inserted into a cage; there were two subjects (4 arms) per cage. The test subjects exposed their treated forearms to the flies in the test cages for 5 minutes. The subjects then removed their arms from the cages with assistance from the study coordinator or a technician. Exposures of each arm were repeated every 30 minutes until the repellent on that arm was determined to be no longer effective (‘breakdown’) or until 8 hours have elapsed, whichever occurs first.
Breakdown occurs when the first confirmed bite is noted. A confirmed bite occurs when a bite is followed by a second bite in the same exposure period or in the next succeeding exposure period. The second bite becomes the confirming bite and the breakdown time is taken as the time of the first bite. When a confirmed bite occurs, testing is discontinued on that arm. Results in Table 3 below are the average of two trials on two different test subjects. Compounds were diluted in isopropyl alcohol.

[2] = system: Brown Dog Ticks, Rhipicephalus sanguineus; assay: Brown Dog tick repellency on vertical filter paper strips; conditions: 7.5% in isopropyl alcohol
Method: Control against Brown Dog ticks was determined in the following protocol. Strips of filter paper, 1″ by 3″, were placed on a sheet of aluminum foil treated with 1 ml each of the test samples and allowed to dry. The end of each treated strip was stapled to an untreated filter paper strip of the same dimensions. The stapled strips were suspended in a vertical position above a tray, with the treated half attached to a horizontal glass rod by a metal clip. The untreated half was lowered when the strip is vertically positioned. Brown Dog Ticks, Rhipicephalus sanguineus, mixed sexes, were purchased from a supplier. Five replicates of five ticks for each treatment regimen plus five additional replicates for the control were employed. Ticks shipped to the test site were given at least one day to acclimate to “shipping stress” before they are used for testing. Those tick specimens which appeared sluggish or moribund were not used. Suitable ticks were removed from their containers and allowed to quest on the free end of the test strip. Once present on the strip they were watched as they crawled up the strip until they contacted the treated paper. If the tick, once in contact with the treated zone, either turned around, stopped without proceeding further, or dropped off, the tick is classified as repelled. If it continued to crawl onto the treated strip, even after it stopped briefly, that tick was classified as not repelled. A maximum observation time of 1 minute per replicate was allowed for ticks to respond after reaching the treated area, but during the test, if more time was needed, the maximum observation time may have been adjusted at the discretion of the study coordinator. At the end of the observation time, the number of ticks repelled was recorded. Tick behavior was recorded when applicable, such as whether increased number of affected or repelled ticks occurred in successive replicates over time. After the completion of each treatment parameter, the testing chamber was ventilated for five minutes by turning on the exhaust fan and opening the door leading into the chamber. Ticks were used only once. Average number of ticks displaying each behavior category were calculated and compared to the control replicates.

house flies = assay: House fly repellency on treated filter paper food trays in cages; conditions: over 6 hours
Method: The bottom of each cage was lined with brown craft paper and divided into 4 equal quadrants. Each quadrant housed a makeshift filter paper food tray. Two of the four filter papers were treated with repellent and two treated with isopropanol. Control cages contained filter papers that were treated with 4 filter papers of isopropanol only. The number of flies resting on filter paper per quadrant was recorded every 30 minutes for a total of 6 hours. Cages were rotated to eliminate positional bias. […] Each of the test samples were diluted in isopropyl alcohol.

Brown Dog Ticks = assay: Second repellent assay against Brown Dog Ticks; conditions: 15% in isopropyl alcohol
Method: Also, a second repellent assay was used to evaluate six test samples against Brown Dog Ticks. Five replicates of five ticks were given the opportunity to quest onto a vertical strip of untreated filter paper and then allowed to move upward toward a second vertical strip of filter paper treated with one of the six candidate repellents or DEET®. In the control situation, the second strip was treated with isopropanol. They were then observed for directional or behavioral changes caused in response to contact with the repellent. Ticks were recorded as either repelled or not repelled. Compounds were diluted in isopropyl alcohol. The percentages of ticks repelled are shown below in Table 6.

Black Widow spiders = assay: Black Widow spider choice test in half-treated tube shelters; conditions: 5% in isopropanol; location after 24 hours
Method: Control against Black Widow spiders was determined using the following protocol. One test container containing two card stock tube shelters, one half treated with a test sample and the other half treated with isopropanol was prepared. A spider was introduced in the center of the tube. The spider was then given a choice to move to one end of the shelters. The following day, its location is recorded and compared to the results from a shelter containing untreated half-shelters.
On the day of the test one of the two shelters was sprayed with the test sample solution using a 2 oz pump spray bottle. Only the surfaces that the spider will most likely contact were treated. Therefore, only the inside of one of the shelter tubes, including the end disc (spiders will not be able to access the outside part of the shelter) were sprayed. The total amount of product was weighed and recorded. The treated surface was allowed to dry for a minimum of ½ hour, or until solvent could not be detected by smell. At this time the shelter tubes were assembled.
Card stock paper tube shelters were constructed from 2 half-letter sized sheets (5½″×8½″) of paper, rolled and taped together to form a short tube. One end of each was covered with a circle of card stock paper, while the other end was later taped to the open end of the other half sheet, forming one long tube. […] The solvent-treated half was labeled with a “C” on the inner and outer walls with a pencil or a pen with solvent resistant ink. Prior to forming the final tube shelter, a semi-circular hole was cut into one of the margins of each sheet such that, once the two tubes are taped together, the holes correspond to the top and at the junction of the tubes for introduction of the spiders.
Twenty-five arenas were prepared in this manner for each test sample. There were five replicates of five spiders. Twenty-five additional control arenas were also prepared. They were prepared the same way, except that areas to be sprayed were sprayed with isopropanol only.
Replicates of five spiders were selected for each test formulation and for the control. The specimens were visually examined for overall physical condition. […] The spiders were transferred directly into the holding vials using flexible forceps or with a little coaxing with an artist brush. Because of their cannibalistic tendencies, each vial contained only one spider. There they were held until the time for testing.
At the test start the spiders were placed directly in the middle, through the opening at the top of the shelter tube, and the opening covered, with only one spider per arena. […] They were left alone for 24 hours, after which time their location within the arena was recorded. Spiders present inside the shelter treated with the test repellent were considered tolerant.

German cockroaches = assay: German cockroach repellency, choice of food stations in arena; conditions: 50% in acetone; at 4 hours
Method: The efficacy of compounds of this invention to control or repel German cockroaches was illustrated using the following protocol. One food pellet each was placed on a paper square (station) treated with one of the repellent materials. Materials were diluted to 50% in acetone and a straight acetone station was also used. Both stations were placed on the same side of the arena. Cockroaches were starved for 2 days and then released into the arena. They were given a choice to feed on either food pellet. A control arena with an acetone treated station and an untreated station was also used. The distribution of cockroaches within the arena was recorded at 30 minute intervals over 4 hours. Repellency at 4 hours was calculated by the number of cockroaches on the untreated station vs. the total number of cockroaches on the stations.

[3] = 30% in isopropyl alcohol on forearm

CCCCCCCC1CC(=O)C=C(C)C1 (stereo not shown) [3-Methyl-5-heptyl-2-cyclohexenone, 3-methyl-5-heptyl-2-cyclohexenone]
Mortality @ 24 hours (Cockroaches; 2.5% in acetone): 10%

CCCCCC1CC(=O)C=C(C)C1 (stereo not shown) [3-Methyl-5-pentyl-2-cyclohexenone, 3-methyl-5-pentyl-2-cyclohexenone]
Mortality @ 24 hours (Cockroaches; 2.5% in acetone): 96%

CC1CCC(C(C)(C)O)C(O)C1 (stereo not shown) [PMD, p-Menthane-3,8-diol, reference compound]
% Repellency at 24 hours ([1]; 2.5% in isopropyl alcohol): 80% | 100% bite protection for (stable flies; 15% in isopropyl alcohol on forearm): 4.25 h | 100% bite protection for (stable flies; [3]): 6.5 h

CCCCCC1C(=O)CCC1CC(=O)OCCC (stereo not shown) [Propyl dihydrojasmonate, propyl dihydrojasmonate]
% Repellency at 24 hours ([1]; 2.5% in isopropyl alcohol): 80% | % Repellency at 24 hours ([1]; 5% in isopropyl alcohol): 100% | Mean % repelled [2]: 96% | Overall % Repellency (house flies; 5% in isopropyl alcohol): 52% | Overall % Repellency (house flies; 7.5% in isopropyl alcohol): 23% | Mean % repelled (Brown Dog Ticks): 100% | 100% bite protection for (stable flies; [3]): 4 h | % Repellency (Black Widow spiders): 62.5% | % Repellency 4 hr (German cockroaches): 87.5%

CCCCCCCCCCCCCC1CCC(=O)O1 (stereo not shown) [gamma-Heptadecalactone]
Overall % Repellency (house flies; 7.5% in isopropyl alcohol): 39% | Mortality @ 24 hours (Cockroaches; neat): 22% | % Repellency 4 hr (German cockroaches): 100%

CCCCCCCCCC1(C)CCC(=O)O1 (stereo not shown) [gamma-Methyl tridecalactone, gamma methyl tridecalactone]
% Repellency at 24 hours ([1]; 2.5% in isopropyl alcohol): 80% | 100% bite protection for (stable flies; [3]): 1.75 h

CCCCCCCCCCC1CCC(=O)O1 (stereo not shown) [gamma-Tetradecalactone, gamma-tetradecalactone]
% Repellency at 24 hours ([1]; 2.5% in isopropyl alcohol): 82% | % Repellency at 24 hours ([1]; 5% in isopropyl alcohol): 91% | Overall % Repellency (house flies; 7.5% in isopropyl alcohol): 80% | Mortality @ 24 hours (Cockroaches; neat): 46% | Mean % repelled (Brown Dog Ticks): 92% | % Repellency 4 hr (German cockroaches): 82.4% and 75%
